Test results published in the supplement of paper PMC10307832.

Tests used:
Test in all cases: relative viability (nuclei count vs DMSO), 5 days (fraction); higher = more cells survive
[1] = compound: C1/C(=C\C2=CC=CS2)/C(=O)/C(=C/C3=CC=CS3)/C1 + CCNC(=O)c1noc(-c2cc(C(C)C)c(O)cc2O)c1-c1ccc(CN2CCOCC2)cc1 [Luminespib] (partner 0.01 µM)
Outline: (§1)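 Five library-drug doses in √10 steps were combined with a fixed anchor-drug dose, or a single drug was given alone, by pin tool to lung cancer cell lines in 1536-well plates the day after seeding. Nuclei were stained and counted after 5 days. Relative viability is the nuclei count in treated wells over that in vehicle wells, taken as the median of duplicate plates.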

[2] = compound: C1/C(=C\C2=CC=CS2)/C(=O)/C(=C/C3=CC=CS3)/C1 + CS(=O)(=O)CCNCc1ccc(-c2ccc3ncnc(Nc4ccc(OCc5cccc(F)c5)c(Cl)c4)c3c2)o1 [Lapatinib] (partner 2 µM)
Outline: as §1

[3] = compound: C1/C(=C\C2=CC=CS2)/C(=O)/C(=C/C3=CC=CS3)/C1 + NC(=O)Nc1cc(-c2cccc(F)c2)sc1C(=O)N[C@H]1CCCNC1 [AZD7762] (partner 0.2 µM)
Outline: as §1

[4] = compound: C[C@]12O[C@H](C[C@]1(O)CO)n1c3ccccc3c3c4c(c5c6ccccc6n2c5c31)CNC4=O [Lestaurtinib] + CS(=O)(=O)N1CCN(Cc2cc3nc(-c4cccc5[nH]ncc45)nc(N4CCOCC4)c3s2)CC1 [Pictilisib] (partner 1 µM)
Outline: as §1

Cell Line | relative viability ([1]; first compound 0.2 µM) | relative viability ([1]; first compound 0.6325 µM) | relative viability ([1]; first compound 2 µM) | relative viability ([1]; first compound 6.325 µM) | relative viability ([1]; first compound 20 µM) | relative viability ([2]; first compound 0.2 µM) | relative viability ([2]; first compound 0.6325 µM) | relative viability ([2]; first compound 2 µM) | relative viability ([2]; first compound 6.325 µM) | relative viability ([2]; first compound 20 µM) | relative viability ([3]; first compound 0.6325 µM) | relative viability ([3]; first compound 2 µM) | relative viability ([3]; first compound 6.325 µM) | relative viability ([3]; first compound 20 µM) | relative viability ([4]; first compound 0.005 µM) | relative viability ([4]; first compound 0.01581 µM) | relative viability ([4]; first compound 0.05 µM) | relative viability ([4]; first compound 0.1581 µM) | relative viability ([4]; first compound 0.5 µM) | relative viability ([3]; first compound 0.2 µM)
PC-3 [JPC-3] | 0.807 | 0.645 | 0.689 | 0.556 | 0.659 | 0.445 | 0.406 | 0.512 | 0.461 | 0.446 | 0.934 | 0.889 | 0.804 | 0.798 | 0.77 | 0.736 | 0.555 | 0.606 | 0.408 | –
H3255 | 1.21 | 0.855 | 0.954 | 0.871 | 0.907 | 0.235 | 0.296 | 0.127 | 0.227 | 0.237 | 0.878 | 0.945 | 0.842 | 0.914 | 0.5 | 0.393 | 0.388 | 0.277 | 0.164 | 0.916
EMC-BAC-2 | 1.23 | 1.23 | 1.19 | 1.09 | 1.12 | 0.931 | 0.873 | 0.952 | 0.866 | 0.843 | 1.1 | 1.09 | 0.91 | 1.12 | 0.58 | 0.504 | 0.427 | 0.32 | 0.239 | 1.19
CAL-12T | 0.374 | 0.316 | 0.404 | 0.444 | 0.364 | 0.774 | 0.827 | 0.74 | 0.604 | 0.606 | 0.84 | 0.592 | 0.537 | 0.547 | 0.392 | 0.716 | 0.388 | 0.413 | 0.292 | 0.597
